Assay results reported in US20250281419A1, “LIPID AMINES” (ModernaTX, Inc., priority 2021, published 2025).

Tests used:
[1] = CFTR mRNA nanoparticle biophysical data (DLS, Ribogreen); assay type: physicochemical
Experimental: Lipids were dissolved in ethanol at a concentration of 24 mg/mL and molar ratios of 49.0:11.2:39.3:0.5 (IL1:DSPC:cholesterol:PEG-DMG-2K) and mixed with the acidification buffer (45 mM acetate buffer at pH 4). The lipid solution and acidification buffer were mixed using a multi-inlet vortex mixer at a 3:7 volumetric ratio of lipid:buffer for mixer 1 and mixer 2 and a 1:3 volumetric ratio of lipid:buffer (25% ethanol) for mixer 3. After a 5 second residence time, the resulting nanoparticles were mixed with 55 mM sodium acetate at pH 5.6 at a volumetric ratio of 5:7 of nanoparticle: buffer. See Table 4a for mixing parameters. The resulting dilute nanoparticles were then buffer exchanged and concentrated using tangential flow filtration (TFF) into a final buffer containing 5 mM sodium acetate pH 5.0. Then a 70% sucrose solution in 5 mM acetate buffer at pH 5 is subsequently added.
The resulting nanoparticles at a lipid concentration of 7.33 mg/mL in 5 mM acetate (pH 5) and 75 g/L sucrose were mixed with mRNA (luciferase or CFTR) at a concentration of 0.625 mg/mL in 42.5 mM sodium acetate pH 5.0, with N: P of 4.93. The nanoparticle solution and […] were mixed using a multi-inlet vortex mixer at a 3:2 volumetric ratio of nanoparticle:mRNA. Once loaded with mRNA, these intermediate nanoparticles underwent a 300 second residence time prior addition of neutralization buffer containing 120 mM TRIS pH 8.12 at a volumetric ratio of 5:1 of nanoparticle: buffer.
For HeLa studies evaluating CFTR protein expression, the intermediate nanoparticle formulation (1 mL, 0.415 mg mRNA) is mixed with a buffer containing 20 mM TRIS (pH 7.5), 0.9 mg/mL PEG-DMG-2K and lipid amine SA52 (647.1 nmol) at a volumetric ratio of 6:1 of nanoparticle: buffer. The resulting nanoparticle suspension underwent concentration using a centrifugal filtration device (100 kDa molecular weight cut-off) and was diluted in running buffer (20 mM TRIS, 14.3 mM sodium acetate, and 32 g/L sucrose, pH 7.5) with a 300 mM NaCl solution to a final buffer matrix containing 70 mM NaCl. […]

HeLa cells [2] = assay: CFTR protein expression assay in HeLa cells (LNPs analogous to Example 4, lipid amine post-added); assay type: cell-based, Human; conditions: LNP prepared analogous to Example 4 with CFTR mRNA, vs buffer (PBS) control, 5 hr transfection, 24 hr incubation, N=4 wells
Experimental: Lipid nanoparticle compositions were prepared in a manner analogous to that in example 4. To evaluate LNP cellular uptake and protein expression In Vitro, HeLa cells from ATCC.org (ATCC CCL-2) was used. The cells were cultured in complete Minimum Essential Medium (MEM) and were plated in 96 well Cell Carrier Ultra plate with PDL coated surface (PerkinElmer) prior to running an experiment.
Buffer control (PBS) and LNPs encapsulating cystic fibrosis transmembrane conductance regulator (CFTR) mRNA were dosed with MEM media in the absence of serum (N=4 replicate wells). LNP transfected cells were incubated for 5 hr, followed by media removal and supplementation with complete MEM media. Cells were further incubated in complete MEM media overnight (24 hr).
Following 24 hr incubation, the cells were fixed with PFA and processed for immunofluorescence (IF) using an anti-CFTR rabbit monoclonal antibody. Briefly, the cells were permeabilized with 0.5% TX-100 for 10 min, blocked with 3% bovine serum albumin (BSA)+PBST for 1 hr at room temperature, and incubated with primary anti-CFTR monoclonal antibody overnight at 4° C. […] Cells were imaged using Opera Phoenix spinning disk confocal microscope (PerkinElmer), and CFTR protein expression was detected using the 488 nm channel. […]

HeLa cells [3] = assay: CFTR protein expression assay in HeLa cells (LNPs of Example 2, immunofluorescence); assay type: cell-based, Human; conditions: compared to buffer (PBS) control, 5 h transfection, 24 h incubation, N=4 wells
Experimental: Lipid nanoparticles were prepared using ethanol drop nanoprecipitation followed by solvent exchange into suitable aqueous buffer using dialysis. An exemplary lipid nanoparticle composition can be prepared by a process where lipids are dissolved in ethanol at a concentration of 12.5 mM and molar ratios of 33:15:11:39.5:1.5 (e.g., ionizable lipid:SA46:phospholipid:cholesterol:PL1). Lipid to mRNA is maintained at a N/P ratio of 4.9. Then mRNA is diluted with 25 mM sodium acetate (pH 5.0) and combined with the lipid mixture at a volume ratio of 3:1 (aqueous: ethanol). Resulting formulations are dialyzed against 20 mM tris/8% sucrose/70 mM sodium chloride (pH 7.4) at a volume of 300 times that of the primary product using Slide-A-Lyzer dialysis cassettes (Thermo Scientific, Rockford, IL, USA) with a molecular cutoff of 10 KDa for at least 18 h. The first dialysis is carried out at room temperature in a digital orbital shaker (VWR, Radnor, PA, USA) at 85 rpm for 3 h and then dialyzed overnight at 4° C. Formulations are concentrated using Amicon ultra-centrifugal filters (EMD Millipore, Billerica, MA, USA), passed through a 0.22-μm filter and stored at 4° C. until use. Lipid nanoparticle solutions are typically adjusted to specific mRNA concentrations between 0.1 and 1 mg/mL. LNPs were prepared according to Example 2. To evaluate LNP cellular uptake and protein expression in vitro, HeLa cells from ATCC.org (ATCC CCL-2) are used. The cells are cultured in complete Minimum Essential Medium (MEM) and are plated in 96 well Cell Carrier Ultra plate with PDL coated surface (PerkinElmer) prior to running an experiment. Buffer control (PBS) and LNPs encapsulating cystic fibrosis transmembrane conductance regulator (CFTR) mRNA were dosed with MEM media in the absence of serum (N=4 replicate wells). LNP transfected cells were incubated for 5 h, followed by media removal and supplementation with complete MEM media. Cells were further incubated in complete MEM media overnight (24 h). Following 24 hr incubation, the cells were fixed with PFA and processed for immunofluorescence (IF) using an anti-CFTR rabbit monoclonal antibody. Briefly, the cells were permeabilized with 0.5% TX-100 for 10 min, blocked with 3% bovine serum albumin (BSA)+PBST for 1 hr at room temperature, and incubated with primary anti-CFTR monoclonal antibody overnight at 4° C. Following primary antibody incubation, the cells were incubated with Alexa 488 conjugated secondary antibody for 30 min, and stained with DAPI and HCS CellMask Blue stain. Between different incubation steps the cells were either washed with PBS or PBST. Cells were imaged using Opera Phoenix spinning disk confocal microscope (PerkinElmer), and CFTR protein expression was detected using the 488 nm channel. The image analysis was performed in Harmony 4.9, with main analysis output being CFTR intensity per cell. The results shown in Table 3a show fold-change in CFTR signal intensity per cell compared to buffer (PBS) control (nanoparticle composition: IL1:Lipid Amine:DSPC:Chol:PL1). The results shown in Table 3b show fold-change in CFTR signal intensity per cell compared to buffer (PBS) control (nanoparticle composition: IL1:Lipid Amine:DPPC:Chol:PL1).

CC(C)CCC[C@@H](C)[C@H]1CC[C@H]2[C@@H]3CC=C4C[C@@H](OC(=O)CCC(=O)N5CCN(C)CCN(C)CC5)CC[C@]4(C)[C@H]3CC[C@]12C [SA52, (3S,8S,9S,10R,13R,14S,17R)-10,13-Dimethyl-17-((R)-6-methylheptan-2-yl)-2,3,4,7,8,9,10,11,12,13,14,15,16,17-tetradecahydro-1H-cyclopenta[a]phenanthren-3-yl 4-(4,7-dimethyl-1,4,7-triazonan-1-yl)-4-oxobutanoate]
Diameter ([1]; CFTR mRNA nanoparticle with lipid amine (IL1:DSPC:cholesterol:PEG-DMG-2K core), DLS): 72.4 nm | PDI ([1]; CFTR mRNA nanoparticle with lipid amine, DLS): 0.11 | % Encapsulation (Ribogreen) ([1]; CFTR mRNA nanoparticle with lipid amine, Ribogreen assay): 96.6% | Average fold-change in CFTR signal intensity per cell compared to buffer control ± standard deviation (HeLa cells [2]): 3.4 ± 0.5 fold-change | Average fold-change in CFTR signal intensity per cell ± standard deviation (HeLa cells [3]; LNP IL1:Lipid Amine:DPPC:Chol:PL1 with CFTR mRNA): 9.3 ± 1.2 fold-change | Average fold-change in CFTR signal intensity per cell ± standard deviation (HeLa cells [3]; LNP IL1:Lipid Amine:DSPC:Chol:PL1 with CFTR mRNA): 2.3 ± 0.1 fold-change
